Measured values published in patent US20110111986A1, “NOVEL SACCHARIDE PRIMER AND USE THEREOF” (KEIO UNIVERSITY, priority 2007, published 2011).

Test system: B16 cells
Assay: Sugar chain extension reaction in B16 cells with saccharide primer (HPTLC, densitometer)
Assay type: cell-based, mouse
Conditions: for extended sugar chain product detected by HPTLC: B16 cells 2.0×10^6 cells/plate, 48 hours, medium fraction and cell fraction, resorcinol staining
Procedure: When a saccharide primer is administered to the sugar chain-synthesizing cell described above, this cell reacts with the saccharide primer, and as a result, a desired sugar chain can be obtained. Specifically, a saccharide primer is administered at a concentration of 50 μM to a medium in which sugar chain-synthesizing cells (for example, B16 cells) are cultured, and the mixture is incubated at 37° C. for about 2 days. During that period, the saccharide primer is introduced into the cells, a sugar is added to the saccharide primer, and various types of sugar chains are produced in the culture liquid. The sugar chains are recovered from the culture liquid by a method known to a person skilled in the art, for example, a lectin column or a commercially available sugar chain purification kit.
First, the saccharide primer Lac-C12 and the saccharide primer Lac-C13:1(2) were added to each medium in which B16 cells (mouse melanoma cells strongly expressing GM3) (Japan Health Science Foundation, Health Science Research Resources Bank) were plated at a concentration of 2.0×10^6 cells/plate, and then incubated for 48 hours. Then, the medium and the cells were separated by centrifugation, and each of collected substances was analyzed with HPTLC.
With regard to the saccharide primer Lac-C12 and the saccharide primer Lac-C13:1(2), their sugar chain extension efficiencies in B16 cells and amounts of the saccharide primers taken into the cells were compared by a quantitative analysis with a densitometer.

SMILES	extended sugar chain product detected by HPTLC	sugar chain extension efficiency (amounts of extended sugar chain products) (B16 cells, medium fraction, 48 hours incubation, densitometer quantitation, compared with Lac-C12, listed as Lac-O-C13:1(2))
CCCCCCCCCCCCO[C@@H]1OC(CO)[C@@H](O[C@@H]2OC(CO)[C@H](O)[C@H](O)C2O)[C@H](O)C1O (stereo partly drawn) [Lac-C12, reference compound]	a product X′ was confirmed in both the medium fraction and the cell fraction	
CCCCCCCCCC/C=C/CO[C@@H]1OC(CO)[C@@H](O[C@@H]2OC(CO)[C@H](O)C(O)C2O)C(O)C1O (stereo partly drawn) [Lac-C13:1(2), 1-O-(trans-2-tridecenyl)-4-O-(β-D-galactopyranosyl)-β-D-glucopyranoside]	a product X was confirmed in both the medium fraction and the cell fraction	equal to or greater than those obtained by using a conventional primer
